The NIST ThermoML archive (doi:10.1016/j.tca.2005.08.036)
Numbers after ± are expanded uncertainties.

Details: Liquid, Capillary tube (Ostwald / Ubbelohde) method

`O` [water] gave a viscosity (284.56 K, 100 kPa) of 1.257 ± 0.011 mPa·s, a viscosity (284.56 K, 10000 kPa) of 1.249 ± 0.011 mPa·s and a viscosity (284.56 K, 40000 kPa) of 1.231 ± 0.011 mPa·s. For the same compound, the viscosity (304.83 K, 100 kPa) was 0.7654 ± 0.007 mPa·s, the viscosity (304.83 K, 10000 kPa) was 0.7725 ± 0.0071 mPa·s and the viscosity (304.83 K, 40000 kPa) was 0.7745 ± 0.007 mPa·s. For the same compound, the viscosity (335.46 K, 100 kPa) was 0.4482 ± 0.0044 mPa·s, the viscosity (335.46 K, 10000 kPa) was 0.4504 ± 0.0044 mPa·s and the viscosity (335.46 K, 40000 kPa) was 0.4635 ± 0.0045 mPa·s. For the same compound, the viscosity (368.64 K, 100 kPa) was 0.2938 ± 0.0032 mPa·s, the viscosity (368.64 K, 10000 kPa) was 0.2966 ± 0.0032 mPa·s and the viscosity (368.64 K, 40000 kPa) was 0.3086 ± 0.0032 mPa·s. The viscosity (397.56 K, 10000 kPa) was 0.2278 ± 0.0026 mPa·s, the viscosity (397.56 K, 40000 kPa) was 0.2358 ± 0.0027 mPa·s and the viscosity (435.61 K, 10000 kPa) was 0.1679 ± 0.0022 mPa·s. It also gave a viscosity (435.61 K, 40000 kPa) of 0.1745 ± 0.0022 mPa·s.
